Publication PMC8632988, “Inhibition of SYK and cSrc kinases can protect bone and cartilage in preclinical models of osteoarthritis and rheumatoid arthritis” (Scientific Reports, 2021)
“And” between values parts separate entries of the source, which are not always exact repeats. Equal values may be shown once.

What was measured:
Lewis rats, CIA model = test: Collagen-induced semi-established arthritis model in rats; type: in vivo, rat; conditions: for Bone Resorption score, % inhibition / Cartilage Damage score, % inhibition / Inflammation score, % inhibition / Pannus score, % inhibition / Periosteal Bone Formation score, % inhibition / Periosteal Naïve Bone Width, % inhibition / Summed Histopathology Scores, % inhibition: vs vehicle
Protocol: Rat CIA model was performed was performed at Pharmenterprises, Russia and approved by Ethics Committee of Pharmenterprises. Female Lewis rats with body weight of 164–183 g (Charles River Laboratories, Inc., Wilmington, MA) were injected with porcine type II collagen (Chondrex) emulsified with Freund’s Incomplete Adjuvant (Sigma Aldrich) at two sites at the base of the tail according to standard protocol. On day 7, the rats were boosted with a second subcutaneous injection. On day 6 of the study, rats were randomized by body weight into six groups: a control group of four, and five treatment groups of eight. […] Disease progression was monitored via daily ankle thickness measurements. At study termination on day 16 rats were anesthetized with Isoflurane, bled by vacutainer through the descending aorta to exsanguinate and then euthanized for tissue collection. Hind paws were transected at the level of the medial and lateral malleolus, weighed, and collected for microscopy.
[…]

341 kinases = test: Kinase selectivity profile, whole panel; type: biochemical, human; conditions: 500 nM
Protocol: The activity of MT-SYK-03 against cSrc kinase and selectivity profile towards other 341 kinases was determined at Reaction Biology Corporation (Malvern, PA, USA) using the standard kinase assay protocol. […]; unbound phosphate was removed by extensive washing of filters in phosphoric acid. Kinase activity data was expressed as the percent remaining kinase activity in test samples compared to vehicle (dimethyl sulfoxide) reactions based on the radioactivity of reaction products (see Table S2). Experiment was replicated twice.

DYRK4 = biological target: T1, DYRK4 (Homo sapiens, UniProt Q9NR20); test: Kinase selectivity profile assay; type: biochemical; conditions: 500 nM; relative to DMSO; read-out: Residual enzymatic activity
T1 construct: purchased Reaction Biology Corporation
T1 sequence (Q9NR20 whole entry): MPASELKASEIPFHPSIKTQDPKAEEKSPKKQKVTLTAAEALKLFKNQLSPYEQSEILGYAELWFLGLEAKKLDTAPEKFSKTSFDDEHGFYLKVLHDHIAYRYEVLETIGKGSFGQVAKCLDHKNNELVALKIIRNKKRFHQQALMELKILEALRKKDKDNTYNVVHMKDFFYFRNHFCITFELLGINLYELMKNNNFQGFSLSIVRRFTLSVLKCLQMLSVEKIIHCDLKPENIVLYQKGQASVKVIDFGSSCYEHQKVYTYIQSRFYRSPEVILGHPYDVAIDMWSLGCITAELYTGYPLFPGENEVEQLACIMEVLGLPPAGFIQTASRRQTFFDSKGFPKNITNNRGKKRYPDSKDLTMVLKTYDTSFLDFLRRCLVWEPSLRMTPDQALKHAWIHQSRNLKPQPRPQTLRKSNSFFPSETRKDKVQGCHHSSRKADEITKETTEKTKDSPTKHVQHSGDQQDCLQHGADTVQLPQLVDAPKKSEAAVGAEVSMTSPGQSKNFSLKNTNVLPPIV
Protocol: The activity of MT-SYK-03 against cSrc kinase and selectivity profile towards other 341 kinases was determined at Reaction Biology Corporation (Malvern, PA, USA) using the standard kinase assay protocol. […] Kinase activity data was expressed as the percent remaining kinase activity in test samples compared to vehicle (dimethyl sulfoxide) reactions based on the radioactivity of reaction products (see Table S2). Experiment was replicated twice.

[1] = ankle, day 16, MT-SYK-03 103 mg/kg PO BID + MTX Veh PO QD
[2] = ankle, day 16, MT-SYK-03 207 mg/kg PO BID, group mean
[3] = ankle, day 16, MT-SYK-03 207 mg/kg PO BID, individual joint (animal, R/L), 207 mg/kg
[4] = ankle, day 16, MT-SYK-03 207 mg/kg PO BID
[5] = knee, day 16, MT-SYK-03 103 mg/kg PO BID + MTX Veh PO QD, group mean
[6] = knee, day 16, MT-SYK-03 103 mg/kg PO BID + MTX Veh PO QD, individual joint (animal, R/L), 103 mg/kg
[7] = knee, day 16, MT-SYK-03 103 mg/kg PO BID + MTX Veh PO QD
[8] = knee, day 16, MT-SYK-03 207 mg/kg PO BID + MTX Veh PO QD, group mean
[9] = knee, day 16, MT-SYK-03 207 mg/kg PO BID + MTX Veh PO QD, individual joint (animal, R/L), 207 mg/kg
[10] = knee, day 16, MT-SYK-03 207 mg/kg PO BID + MTX Veh PO QD

COc1cc(Nc2ncnc(Nc3cc4c(cn3)NC(=O)C(C)(C)O4)n2)cc(OC)c1OC [MT-SYK-03]
Bone Resorption score, % inhibition (Lewis rats, CIA model; [1]): −2% | Cartilage Damage score, % inhibition (Lewis rats, CIA model; [1]): 13% | Inflammation score, % inhibition (Lewis rats, CIA model; [1]): 1% | Pannus score, % inhibition (Lewis rats, CIA model; [1]): -2% | Periosteal Bone Formation score, % inhibition (Lewis rats, CIA model; [1]): 7% | Periosteal Naïve Bone Width, % inhibition (Lewis rats, CIA model; [1]): 11% | Summed Histopathology Scores, % inhibition (Lewis rats, CIA model; [1]): 4% | Bone Resorption score, Mean (Lewis rats, CIA model; [2]): 1.06 | Cartilage Damage score, Mean (Lewis rats, CIA model; [2]): 1.78 | Inflammation score, Mean (Lewis rats, CIA model; [2]): 3.84 | Pannus score, Mean (Lewis rats, CIA model; [2]): 1.06 | Periosteal Bone Formation score, Mean (Lewis rats, CIA model; [2]): 0.69 | Periosteal Naïve Bone Width Actual, Mean (Lewis rats, CIA model; [2]): 129.94 μm | Summed Histopathology Scores, Mean (Lewis rats, CIA model; [2]): 8.44 | Bone Resorption score (0=normal to 5=severe) (Lewis rats, CIA model; [3]): 1 and 2 and 0 and 0.5 | Cartilage Damage score (0=normal to 5=severe) (Lewis rats, CIA model; [3]): 2 and 3 and 0.5 and 1 | Inflammation score (0=normal to 5=severe) (Lewis rats, CIA model; [3]): 4 and 5 and 0.5 and 1 and 2 and 3 | Pannus score (0=normal to 5=severe) (Lewis rats, CIA model; [3]): 1 and 2 and 0 and 0.5 | Periosteal Bone Formation score (0=normal to 5=severe) (Lewis rats, CIA model; [3]): 0.5 and 1 and 0 and 2 | Periosteal Naïve Bone Width 16x Measure (Lewis rats, CIA model; [3]): 1 and 2 and 3 and 4 and 0 and 5 | Periosteal Naïve Bone Width Actual (Lewis rats, CIA model; [3]): 63 μm and 126 μm and 189 μm and 252 μm and 0 μm and 315 μm | Summed Histopathology Scores (Lewis rats, CIA model; [3]): 8.5 and 12.5 and 13 and 12 and 10 and 1 and 1.5 and 3.5 and 4 and 14 and 6.5 | Periosteal Naïve Bone Width, ANOVA to Vehicle (Lewis rats, CIA model; ankle, day 16, MT-SYK-03 207 mg/kg PO BID, p value): p < 0.05 | Bone Resorption score, % inhibition (Lewis rats, CIA model; [4]): 28% | Cartilage Damage score, % inhibition (Lewis rats, CIA model; [4]): 26% | Inflammation score, % inhibition (Lewis rats, CIA model; [4]): 15% | Pannus score, % inhibition (Lewis rats, CIA model; [4]): 28% | Periosteal Bone Formation score, % inhibition (Lewis rats, CIA model; [4]): 46% | Periosteal Naïve Bone Width, % inhibition (Lewis rats, CIA model; [4]): 42% | Summed Histopathology Scores, % inhibition (Lewis rats, CIA model; [4]): 24% | Bone Resorption score, Mean (Lewis rats, CIA model; [5]): 0.66 | Cartilage Damage score, Mean (Lewis rats, CIA model; [5]): 1.03 | Inflammation score, Mean (Lewis rats, CIA model; [5]): 2.78 | Pannus score, Mean (Lewis rats, CIA model; [5]): 0.72 | Summed Histopathology Scores, Mean (Lewis rats, CIA model; [5]): 5.19 | Bone Resorption score (0=normal to 5=severe) (Lewis rats, CIA model; [6]): 1 and 2 and 0 and 0.5 | Cartilage Damage score (0=normal to 5=severe) (Lewis rats, CIA model; [6]): 2 and 0 and 1 and 0.5 | Inflammation score (0=normal to 5=severe) (Lewis rats, CIA model; [6]): 5 and 0.5 and 4 and 3 and 2 | Pannus score (0=normal to 5=severe) (Lewis rats, CIA model; [6]): 1 and 2 and 0 and 0.5 | Summed Histopathology Scores (Lewis rats, CIA model; [6]): 9 and 11 and 0.5 and 7 and 8 and 5 and 4.5 and 3 and 1 | Bone Resorption score, % inhibition (Lewis rats, CIA model; [7]): 9% | Cartilage Damage score, % inhibition (Lewis rats, CIA model; [7]): 21% | Inflammation score, % inhibition (Lewis rats, CIA model; [7]): 13% | Pannus score, % inhibition (Lewis rats, CIA model; [7]): 4% | Summed Histopathology Scores, % inhibition (Lewis rats, CIA model; [7]): 13% | Bone Resorption score, Mean (Lewis rats, CIA model; [8]): 0.16 | Cartilage Damage score, Mean (Lewis rats, CIA model; [8]): 0.56 | Inflammation score, Mean (Lewis rats, CIA model; [8]): 1.59 | Pannus score, Mean (Lewis rats, CIA model; [8]): 0.41 | Summed Histopathology Scores, Mean (Lewis rats, CIA model; [8]): 2.63 | Bone Resorption score (0=normal to 5=severe) (Lewis rats, CIA model; [9]): 0.5 and 1 and 0 | Cartilage Damage score (0=normal to 5=severe) (Lewis rats, CIA model; [9]): 1 and 0 and 0.5 | Inflammation score (0=normal to 5=severe) (Lewis rats, CIA model; [9]): 4 and 1 and 0 and 2 and 3 and 0.5 | Pannus score (0=normal to 5=severe) (Lewis rats, CIA model; [9]): 0.5 and 1 and 0 | Summed Histopathology Scores (Lewis rats, CIA model; [9]): 6 and 7 and 2.5 and 0 and 3 and 4.5 and 2 and 5 and 5.5 and 3.5 and 0.5 | Bone Resorption score, ANOVA to Vehicle (Lewis rats, CIA model; knee, day 16, MT-SYK-03 207 mg/kg PO BID + MTX Veh PO QD, p value): p < 0.05 | Bone Resorption score, % inhibition (Lewis rats, CIA model; [10]): 78% | Cartilage Damage score, % inhibition (Lewis rats, CIA model; [10]): 57% | Inflammation score, % inhibition (Lewis rats, CIA model; [10]): 50% | Pannus score, % inhibition (Lewis rats, CIA model; [10]): 46% | Summed Histopathology Scores, % inhibition (Lewis rats, CIA model; [10]): 56% | Histopathology scores for cartilage damage and bone resorption, ankles and knees (Lewis rats, CIA model; rat CIA, day 16): chondroprotective and antiresorptive effects | Histopathology scores of inflammation and pannus formation (Lewis rats, CIA model; rat CIA, day 16): smaller | Relative weights of thymus, liver and spleen (Lewis rats, CIA model; rat CIA, day 16): statistically identical across all groups | Number of kinases inhibited by more than 50% (341 kinases): 34 kinases | Number of kinases inhibited by more than 80% (341 kinases): 13 kinases | Number of kinases inhibited by more than 90% (341 kinases): five | remaining activity at 0.5 µM (DYRK4): 104%
